Experimental findings from patent US20080167314A1, “Condensed Imidazole Compound And Use Thereof” (priority 2004, published 2008) are described below.

As a reminder, the melting point is the temperature of the solid-liquid transition. Regarding `Cc1cccc(-c2nc3cccnn3c2-c2ccnc(NC3CC3)c2)c1` [Example Compound 6-4, N-cyclopropyl-4-[2-(3-methylphenyl)imidazo[1,2-b]pyridazin-3-yl]pyridin-2-amine], the melting point is 202 to 203 °C.

The compound `COc1ccc(C(=O)Nc2cc(-c3c(-c4cccc(Cl)c4)nc4cccnn34)ccn2)cc1.Cl` displayed a melting point of 236 to 238 °C.

The compound `CSc1ccc2nc(-c3cccc(C)c3)c(-c3ccnc(NC4CCCCC4)c3)n2n1` [Example 10, N-Cyclohexyl-4-[2-(3-methylphenyl)-6-(methylthio)imidazo[1,2-b]pyridazin-3-yl]pyridin-2-amine] yielded a melting point of 150 to 151 °C.

The compound `Cc1cc(-c2nc3cccnn3c2-c2ccnc(NC(=O)NCCCCl)c2)ccc1F` [Example 47-4, N-(3-chloropropyl)-N′-{4-[2-(4-fluoro-3-methylphenyl)imidazo[1,2-b]pyridazin-3-yl]pyridin-2-yl}urea] gave a melting point of 170 to 171 °C.

Compound `COc1ccc(C(=O)Nc2cc(-c3c(-c4cccc(C)c4)nc4ccc(N(C)C)nn34)ccn2)cc1` [Example 45-1, N-{4-[6-(dimethylamino)-2-(3-methylphenyl)imidazo[1,2-b]pyridazin-3-yl]pyridin-2-yl}-4-methoxybenzamide] showed a melting point of 193 to 194 °C.

`Cc1cccc(-c2nc3cccnn3c2-c2ccnc(NC3CCCc4ccccc43)c2)c1` (centres unmarked) [Example Compound 6-12, 4-[2-(3-methylphenyl)imidazo[1,2-b]pyridazin-3-yl]-N-(1,2,3,4-tetrahydtonaphthalen-1-yl)pyridin-2-amine] yielded a melting point of 195 to 196 °C.

For the compound `COc1ccc(C(=O)Nc2cc(-c3c(-c4ccc(F)c(C)c4)nc4ccc(N(C)C)nn34)ccn2)cc1` [Example 45-2, N-{4-[6-(dimethylamino)-2-(4-fluoro-3-methylphenyl)imidazo[1,2-b]pyridazin-3-yl]pyridin-2-yl}-4-methoxybenzamide], the melting point lay in the range of 224 to 225 °C.

In the case of `CCC(C)NC(=O)Nc1cc(-c2c(-c3ccc(F)c(C)c3)nc3cccnn23)ccn1` (centres unmarked) [Example 47-3, N-(sec-butyl)-N′-{4-[2-(4-fluoro-3-methylphenyl)imidazo[1,2-b]pyridazin-3-yl]pyridin-2-yl}urea], the melting point was 196 to 197 °C.

Turning to `Cc1cccc(-c2nc3cccnn3c2-c2ccnc(NC(=O)c3ccncc3)n2)c1` [Example 44-3, N-{4-[2-(3-methylphenyl)imidazo[1,2-b]pyridazin-3-yl]pyrimidin-2-yl}isonicotinamide], the melting point is 181 to 182 °C.

In the case of `CCC(=O)Nc1cc(-c2c(-c3ccc(Cl)cc3)nc3cccnn23)ccn1` [Example Compound 21-28, N-{4-[2-(4-chlorophenyl)imidazo[1,2-b]pyridazin-3-yl]pyridin-2-yl}propanamide], the melting point lay within 204 to 205 °C.

On to `CSCCC(=O)Nc1cc(-c2c(-c3ccc(F)c(C)c3)nc3cccnn23)ccn1` [Example 42-5, N-{4-[2-(4-fluoro-3-methylphenyl)imidazo[1,2-b]pyridazin-3-yl]pyridin-2-yl}-3-(methylthio)propanamide], for which the melting point fell in the range of 158 to 159 °C.

For the compound `Cc1cc(-c2nc3cccnn3c2-c2ccnc(NC(=O)c3ccc(Cl)nc3)c2)ccc1F.Cl`, the melting point is 250 to 251 °C.

Turning to `Cc1cc(-c2nc3c(C)cc(Cl)nn3c2-c2ccnc(NC(=O)c3ccc(F)cc3)c2)ccc1F` [Example 41-2, N-{4-[6-chloro-2-(4-fluoro-3-methylphenyl)-8-methylimidazo[1,2-b]pyridazin-3-yl]-2-pyridyl}-4-fluorobenzamide], the melting point lay in the range of 235 to 236 °C.

As to `CC(C)NC(=O)Nc1cc(-c2c(-c3ccc(F)cc3)nc3cccnn23)ccn1` [Example Compound 28-10, N-{4-[2-(4-fluorophenyl)imidazo[1,2-b]pyridazin-3-yl]pyridin-2-yl}-N′-isopropylurea], the melting point was 222 to 223 °C.

As for `Cc1cccc(-c2nc3ccc(Cl)nn3c2-c2ccnc(Nc3ccc(F)cc3C)c2)c1` [Example Compound 3-1, 4-[6-chloro-2-(3-methylphenyl)imidazo[1,2-b]pyridazin-3-yl]-N-(4-fluoro-2-methylphenyl)pyridin-2-amine], the melting point fell in the range of 191 to 192 °C.

In turn, `Cc1cccc(NC(=O)Nc2cc(-c3c(-c4cccc(C)c4)nc4cccnn34)ccn2)c1` [Example Compound 27-2, N-(3-methylphenyl)-N′-{4-[2-(3-methylphenyl)imidazo[1,2-b]pyridazin-3-yl]pyridin-2-yl}urea] registered a melting point of 202 to 203 °C.

`COc1cc(F)ccc1C(=O)Nc1cc(-c2c(-c3ccc(F)c(C)c3)nc3cccnn23)ccn1` [Example 42-8, 4-fluoro-N-{4-[2-(4-fluoro-3-methylphenyl)imidazo[1,2-b]pyridazin-3-yl]pyridin-2-yl}-2-methoxybenzamide] returned a melting point of 251 to 252 °C.

The compound `Cc1cc(-c2nc3cccnn3c2-c2ccnc(NC(=O)Nc3ccc(C#N)cc3)c2)ccc1F` [Example 47-5, N-(4-cyanophenyl)-N′-{4-[2-(4-fluoro-3-methylphenyl)imidazo[1,2-b]pyridazin-3-yl]pyridin-2-yl}urea] displayed a melting point of 204 to 206 °C.

For the compound `Cc1cc(-c2nc3cccnn3c2-c2ccnc(NC(=O)c3ccc(C(F)(F)F)cc3)c2)ccc1F` [Example 42-13, N-{4-[2-(4-fluoro-3-methylphenyl)imidazo[1,2-b]pyridazin-3-yl]pyridin-2-yl}-4-(trifluoromethyl)benzamide], the melting point lay in the range of 224 to 225 °C.

Turning to `Cc1cc(-c2nc3cccnn3c2-c2ccnc(NC(=O)NCC(F)(F)F)c2)ccc1F` [Example 51-2, N-{4-[2-(4-fluoro-3-methylphenyl)imidazo[1,2-b]pyridazin-3-yl]pyridin-2-yl}-N′-(2,2,2-trifluoroethyl)urea], the melting point lay within 229 to 230 °C.

Compound `Cc1cc(-c2nc3cccnn3c2-c2ccnc(NC(=O)c3ccoc3)c2)ccc1F` [Example 42-33, N-{4-[2-(4-fluoro-3-methylphenyl)imidazo[1,2-b]pyridazin-3-yl]pyridin-2-yl}-3-furamide] registered a melting point of 199 to 200 °C.

`CCC(CC)Nc1cc(-c2c(-c3cccc(C)c3)nc3cccnn23)ccn1` [Example compound 6-20, N-(1-ethylpropyl)-4-[2-(3-methylphenyl)imidazo[1,2-b]pyridazin-3-yl]pyridin-2-amine] registered a melting point of 155 to 156 °C.

For the compound `Cc1cc(-c2nc3cccnn3c2-c2ccnc(NC(=O)c3cnccn3)c2)ccc1F` [Example 42-34, N-{4-[2-(4-fluoro-3-methylphenyl)imidazo[1,2-b]pyridazin-3-yl]pyridin-2-yl}pyrazine-2-carboxamide], the melting point lay in the range of 229 to 230 °C.

Regarding `CSc1ccc(NC(=O)Nc2cc(-c3c(-c4ccc(F)c(C)c4)nc4cccnn34)ccn2)cc1` [Example 51-6, N-{4-[2-(4-fluoro-3-methylphenyl)imidazo[1,2-b]pyridazin-3-yl]pyridin-2-yl}-N′-[4-(methylthio)phenyl]urea], the melting point was in the range of 219 to 220 °C.

`CCC(=O)Nc1cc(-c2c(-c3cccc(C)c3)nc3cccnn23)ccn1` [Example Compound 20-9, N-{4-[2-(3-methylphenyl)imidazo[1,2-b]pyridazin-3-yl]pyridin-2-yl}propanamide] displayed a melting point of 138 to 139 °C.

On to `CCNC(=O)Nc1cc(-c2c(-c3cccc(Cl)c3)nc3cccnn23)ccn1` [Example Compound 28-7, N-{4-[2-(3-chlorophenyl)imidazo[1,2-b]pyridazin-3-yl]pyridin-2-yl}-N′-ethylurea], for which the melting point fell in the range of 230 to 231 °C.

Compound `Cc1cccc(-c2nc3cccnn3c2-c2ccnc(NCc3ccco3)c2)c1` [Example Compound 6-17, N-(2-furylmethyl)-4-[2-(3-methylphenyl)imidazo[1,2-b]pyridazin-3-yl]pyridin-2-amine] gave a melting point of 150 to 151 °C.

The compound `Cc1cc(-c2nc3cccnn3c2-c2ccnc(NC(=O)Nc3ccsc3)c2)ccc1F` [Example 47-6, N-{4-[2-(4-fluoro-3-methylphenyl)imidazo[1,2-b]pyridazin-3-yl]pyridin-2-yl}-N′-3-thienylurea] yielded a melting point of 234 to 235 °C.

On to `O=C(Nc1cc(-c2c(-c3ccc(F)cc3)nc3cccnn23)ccn1)c1ccc(Cl)nc1` [Example 40-2, 6-chloro-N-{4-[2-(4-fluorophenyl)imidazo[1,2-b]pyridazin-3-yl]pyridin-2-yl}nicotinamide], for which the melting point is 247 to 248 °C.

Consider `CCCNc1cc(-c2c(-c3cccc(C)c3)nc3cccnn23)ccn1` [Example Compound 6-25, 4-[2-(3-methylphenyl)imidazo[1,2-b]pyridazin-3-yl]-N-propylpyridin-2-amine], for which the melting point lay within 128 to 129 °C.

`CCNc1cc(-c2c(-c3cccc(C)c3)nc3cccnn23)ccn1` [Example Compound 6-26, N-ethyl-4-[2-(3-methylphenyl)imidazo[1,2-b]pyridazin-3-yl]pyridin-2-amine]: the melting point lay in the range of 151 to 153 °C.

`COc1ccc(C(=O)Nc2cc(-c3c(-c4cccc(C)c4)nc4ccc(Cl)nn34)ccn2)cc1` [Example 18, N-{4-[6-Chloro-2-(3-methylphenyl)imidazo[1,2-b]pyridazin-3-yl]pyridin-2-yl}-4-methoxybenzamide] registered a melting point of 204 to 205 °C.

For the compound `COc1ccnn2c(-c3ccnc(N)c3)c(-c3ccc(F)c(C)c3)nc12` [Example Compound 37-4, 4-[2-(4-fluoro-3-methylphenyl)-8-methoxyimidazo[1,2-b]pyridazin-3-yl]-2-pyridylamine], the melting point fell in the range of 219 to 220 °C.

Compound `Cc1cccc(-c2nc3cccnn3c2-c2ccnc(NCC(C)(C)C)c2)c1` [Example compound 6-18, N-(2,2-dimethylpropyl)-4-[2-(3-methylphenyl)imidazo[1,2-b]pyridazin-3-yl]pyridin-2-amine] yielded a melting point of 157 to 158 °C.

In the case of `Cc1cccc(-c2nc3cccnn3c2-c2ccnc(N)c2)c1` [Example 14, 4-[2-(3-Methylphenyl)imidazo[1,2-b]pyridazin-3-yl]pyridin-2-amine], the melting point was 188 to 189 °C.
